Measurements published in patent US5328927A, “Hetercyclic compounds, processes for their preparation and pharmaceutical compositions containing them” (Merck Sharpe & Dohme, Ltd., priority 1992, dated 1994).
Counter-ions that a name gives are not always drawn.

target: human neurokinin-1-receptor (NK1R) (Homo sapiens, UniProt P25103); assay: biochemical; settings: 125I-SP binding; cloned human NK1R expressed in COS or CHO; 1 hour at 4° C. or room temperature
Sequence (P25103 whole entry): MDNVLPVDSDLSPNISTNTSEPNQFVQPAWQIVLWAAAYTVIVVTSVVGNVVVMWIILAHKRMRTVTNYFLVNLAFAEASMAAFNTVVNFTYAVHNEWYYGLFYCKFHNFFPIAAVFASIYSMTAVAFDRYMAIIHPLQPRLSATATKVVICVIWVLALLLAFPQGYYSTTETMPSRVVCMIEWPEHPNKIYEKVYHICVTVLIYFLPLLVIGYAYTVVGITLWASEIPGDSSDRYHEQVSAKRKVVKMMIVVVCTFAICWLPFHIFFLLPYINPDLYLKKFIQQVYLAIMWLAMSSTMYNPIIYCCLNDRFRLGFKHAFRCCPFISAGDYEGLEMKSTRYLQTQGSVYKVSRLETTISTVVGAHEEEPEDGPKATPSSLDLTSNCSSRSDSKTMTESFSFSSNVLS
Procedure: To express the cloned human neurokinin-1-receptor (NK1R) transiently in COS, the cDNA for the human NK1R was cloned into the expression vector pCDM9 which was derived from pCDM8 (INVITROGEN) by inserting the ampicillin resistance gene (nucleotide 1973 to 2964 from BLUESCRIPT SK+ (trademark, [sequence], La Jolla, Calif., USA)) into the Sac II site. Transfection of 20 ug of the plasmid DNA into 10 million COS cells was achieved by electroporation in 800 μl of transfection buffer (135 mM NaCl, 1.2 mM CaCl2, 1.2 mM MgCl2, 2.4 mM K2 HPO4, 0.6 mM KH2 PO4, 10 mM glucose, 10 mM N-2-hydroxyethyl-piperazine-N'-2-ethane sulphonic acid (HEPES) pH 7.4) at 260 V and 950 μF using the IBI GENEZAPPER (trademark IBI, New Haven, Conn., USA). The cells were incubated in 10% fetal calf serum, 2 mM glutamine, 100 U/ml penicillin-streptomycin, and 90% DMEM media (GIBCO, Grand Island, N.Y., USA) in 5% CO2 at 37° C. for three days before the binding assay.
The binding assay of human NK1R expressed in either COS or CHO cells is based on the use of ^125 I-substance P (^125 I-SP from DU PONT, Boston, Mass.) as a radioactively labeled ligand which competes with unlabeled substance P or any other ligand for binding to the human NK1R. […] In the binding assay, 200 μl of cells were added to a tube containing 20 μl of 1.5 to 2.5 nM of ^125 I-SP and 20 μl of unlabeled substance P or any other test compound. The tubes were incubated at 4° C. or at room temperature for 1 hour with gentle shaking. The bound radioactivity was separated from unbound radioactivity by GF/C filter (BRANDEL, Gaithersburg, Md.) which was pre-wetted with 0.1% polyethylenimine. The filter was washed with 3 ml of wash buffer (50 mM Tris pH 7.5, 5 mM MnCl2, 150 mM NaCl) three times and its radioactivity was determined by gamma counter.

| IC50 [µM] | Compound |
| --- | --- |
| 0.7 | CC(=O)NC(Cc1csc2ccccc12)C(O)C=Cc1cc(C(F)(F)F)cc(C(F)(F)F)c1 (single isomer, unassigned) [2 (Isomer A), 2-Acetamido-1-(3-benzo[b]thienyl)-5-(3,5-bistrifluoromethylphenyl)-4-penten-3-ol] |
| 0.3 | CC(=O)NC(Cc1csc2ccccc12)C(O)C=Cc1cc(C(F)(F)F)cc(C(F)(F)F)c1 (single isomer, unassigned) [2 (Isomer B), 2-Acetamido-1-(3-benzo[b]thienyl)-5-(3,5-bistrifluoromethylphenyl)-4-penten-3-ol] |
| 0.35 | COC(C=Cc1cc(C(F)(F)F)cc(C(F)(F)F)c1)C(Cc1csc2ccccc12)NC(C)=O (single isomer, unassigned) [3 (Isomer B), 2-Acetamido-1-(3-benzo[b]thienyl)-5-(3,5-bistrifluoromethylphenyl)-3-methoxy-4-pentene] |
| 0.19 | CC(=O)NC(Cc1csc2ccccc12)C(O)CCc1cc(C(F)(F)F)cc(C(F)(F)F)c1 (single isomer, unassigned) [5 (Isomer A), 2-Acetamido-1-(3-benzo[b]thienyl)-5-(3,5-bistrifluoromethylphenyl)-3-pentanol] |
| 0.5 | CC(=O)NC(Cc1csc2ccccc12)C(O)CCc1cc(C(F)(F)F)cc(C(F)(F)F)c1 (single isomer, unassigned) [5 (Isomer B), 2-Acetamido-1-(3-benzo[b]thienyl)-5-(3,5-bistrifluoromethylphenyl)-3-pentanol] |
| 0.5 | COC(CCc1cc(C(F)(F)F)cc(C(F)(F)F)c1)C(Cc1csc2ccccc12)NC(C)=O (single isomer, unassigned) [6 (Isomer A), 2-Acetamido-1-(3-benzo[b]thienyl)-5-(3,5-bistrifluoromethylphenyl)-3-methoxypentane] |
| 0.03 | COC(CCc1cc(C(F)(F)F)cc(C(F)(F)F)c1)C(Cc1csc2ccccc12)NC(C)=O (single isomer, unassigned) [6 (Isomer B), 2-Acetamido-1-(3-benzo[b]thienyl)-5-(3,5-bistrifluoromethylphenyl)-3-methoxypentane] |
| 0.2 | CC(=O)NC(Cc1csc2ccccc12)C(CCc1cc(C(F)(F)F)cc(C(F)(F)F)c1)=NO (single isomer, unassigned) [14 (Isomer A), 2-Acetamido-1-(3-benzo[b]thienyl)-5-(3,5-bistrifluoromethylphenyl)-3-oximinopentane] |
| 0.3 | CC(=O)NC(Cc1csc2ccccc12)C(CCc1cc(C(F)(F)F)cc(C(F)(F)F)c1)=NO (single isomer, unassigned) [14 (Isomer B), 2-Acetamido-1-(3-benzo[b]thienyl)-5-(3,5-bistrifluoromethylphenyl)-3-oximinopentane] |
| 0.35 | CC(=O)NC(Cc1csc2ccccc12)C(=O)C=Cc1cc(C(F)(F)F)cc(C(F)(F)F)c1 (stereo not drawn) [Example 1, 2-Acetamido-1-(3-benzo[b]thienyl)-5-(3,5-bistrifluoromethylphenyl)-4-penten-3-one] |
| 0.02 | CC(=O)NC(Cc1csc2ccccc12)C(=O)CCc1cc(C(F)(F)F)cc(C(F)(F)F)c1 (stereo not drawn) [Example 4, 2-Acetamido-1-(3-benzo[b]thienyl)-5-(3,5-bistrifluoromethylphenyl)-3-pentanone] |
| 0.03 | CN(C)CC(=O)NC(Cc1csc2ccccc12)C(=O)CCc1cc(C(F)(F)F)cc(C(F)(F)F)c1 (stereo not drawn) [Example 9, 1-(3-Benzo[b]thienyl)-5-(3,5-bistrifluoromethylphenyl)-2-(N,N-dimethylglycinamido)-3-pentanone Hydrochloride] |
| 0.04 | CC(C)(C)OC(=O)NC(Cc1c[nH]c2ccccc12)C(=O)CCc1cc(C(F)(F)F)cc(C(F)(F)F)c1 (stereo not drawn) [Example 10, 5-(3,5-Bistrifluoromethylphenyl)-2-t-butyloxycarbonylamino-1-(3-indolyl)-3-pentanone] |
| 0.015 | NC(Cc1c[nH]c2ccccc12)C(=O)CCc1cc(C(F)(F)F)cc(C(F)(F)F)c1 (stereo not drawn) [Example 11, 2-Amino-5-(3,5-bistrifluoromethylphenyl)-1-(3-indolyl)-3-pentanone Hydrochloride] |
| 0.014 | O=C(NC(Cc1c[nH]c2ccccc12)C(=O)CCc1cc(C(F)(F)F)cc(C(F)(F)F)c1)c1ccccc1 (stereo not drawn) [Example 13, 2-Benzamido-5-(3,5-bistrifluoromethylphenyl)-1-(3-indolyl)-3-pentanone] |
| 0.04 | CC(=O)NC(Cc1ccc(Cl)c(Cl)c1)C(=O)CCc1cc(C(F)(F)F)cc(C(F)(F)F)c1 (stereo not drawn) [Example 15, 2-Acetamido-5-(3,5-bistrifluoromethylphenyl)-1-(3,4-dichlorophenyl)-3-pentanone] |
| 0.0004 | CN(C)CCCC(=O)NC(Cc1c[nH]c2ccccc12)C(=O)CCc1cc(C(F)(F)F)cc(C(F)(F)F)c1 (stereo not drawn) [Example 17, 5-(3,5-Bistrifluoromethylphenyl)-2-(4-(N,N-dimethylamino)butyramido)-1-(3-indolyl)-3-pentanone Hydrochloride] |
| 0.0006 | CN(C)CCCCC(=O)NC(Cc1c[nH]c2ccccc12)C(=O)CCc1cc(C(F)(F)F)cc(C(F)(F)F)c1 (stereo not drawn) [Example 18, 5-(3,5-Bistrifluoromethylphenyl)-2-(5-(N,N-dimethylamino)pentanamido)-1-(3-indolyl)-3-pentanone] |
| 0.002 | O=C(NC(Cc1c[nH]c2ccccc12)C(=O)CCc1cc(C(F)(F)F)cc(C(F)(F)F)c1)C1CC1 (stereo not drawn) [Example 19, 5-(3,5-Bistrifluoromethylphenyl)-2-(cyclopropylcarboxamido)-1-(3-indolyl)-3-pentanone] |
| 0.002 | CC(CC(=O)NC(Cc1c[nH]c2ccccc12)C(=O)CCc1cc(C(F)(F)F)cc(C(F)(F)F)c1)c1ccccc1 (stereo not drawn) [Example 20, 5-(3,5-Bistrifluoromethylphenyl)-2-(3-phenylbutyramido)-1-(3-indolyl)-3-pentanone] |

same assay, conditions: 125I-SP binding; cloned human NK1R expressed in COS or CHO; 1 hour at 4° C. or room temperature; cell prints μM in nM column

| IC50 [µM] | Compound |
| --- | --- |
| > 1 | COC(C=Cc1cc(C(F)(F)F)cc(C(F)(F)F)c1)C(Cc1csc2ccccc12)NC(C)=O (single isomer, unassigned) [3 (Isomer A), 2-Acetamido-1-(3-benzo[b]thienyl)-5-(3,5-bistrifluoromethylphenyl)-3-methoxy-4-pentene] |
